Results as given in patent US20210024542A1 (Torcept Therapeutics, Inc., priority 2018, published 2021).
Where “and” joins values, the source holds several entries; their conditions need not be identical. Equal entries are not always repeated.

Experiment: Whole blood concentrations in mice after IP dosing (LC-MS/MS)
Type: in vivo
Description: These determinations were made using protein precipitation, liquid chromatography (LC), and mass spectrometry (MS/MS). Ten μl aliquots of whole blood and matrix calibration standards were distributed in a 96-well plate; 10 μl aliquots of blank matrix for matrix blanks and control blanks were included as controls. Ten μl of water was added to each sample followed by vortexing. One hundred sixty […] of internal standard was added to each sample except the matrix blanks; 160 μl 70:30 water:acetonitrile (ACN) was added to matrix blanks. This was followed by a […]. One hundred fifty μl of the resultant supernatant was then transferred to a new 96-well plate and the samples blown to dryness at 35° C. The resultant product was then reconstituted with 90 μl ACN.

[1] = 2 mg/kg IP QD x 3 days, Day 1, 1.00 hrs
[2] = 2 mg/kg IP QD x 3 days, Day 1, 2.00 hrs
[3] = 2 mg/kg IP QD x 3 days, Day 1, 6.00 hrs
[4] = 2 mg/kg IP QD x 3 days, Day 1, 24.0 hrs
[5] = 2 mg/kg IP QD x 3 days, Day 2, 1.00 hrs
[6] = 2 mg/kg IP QD x 3 days, Day 2, 2.00 hrs
[7] = 2 mg/kg IP QD x 3 days, Day 2, 6.00 hrs
[8] = 2 mg/kg IP QD x 3 days, Day 2, 24.0 hrs
[9] = 2 mg/kg IP QD x 3 days, Day 3, 1.00 hrs
[10] = 2 mg/kg IP QD x 3 days, Day 3, 2.00 hrs
[11] = 2 mg/kg IP QD x 3 days, Day 3, 6.00 hrs
[12] = 2 mg/kg IP QD x 3 days, Day 3, 24.0 hrs
[13] = 10 mg/kg IP QD x 3 days, Day 1, 1.00 hrs
[14] = 10 mg/kg IP QD x 3 days, Day 1, 2.00 hrs
[15] = 10 mg/kg IP QD x 3 days, Day 1, 6.00 hrs
[16] = 10 mg/kg IP QD x 3 days, Day 1, 24.0 hrs
[17] = 10 mg/kg IP QD x 3 days, Day 2, 2.00 hrs
[18] = 10 mg/kg IP QD x 3 days, Day 2, 24.0 hrs

CO[C@H]1C[C@@H]2CC[C@@H](C)[C@@](O)(O2)C(=O)C(=O)N2CCCC[C@H]2C(=O)O[C@H]([C@H](C)C[C@@H]2C[C@@H]3C[C@H]2C[C@H]3O)CC(=O)[C@H](C)/C=C(\C)[C@@H](O)[C@@H](OC)C(=O)[C@H](C)C[C@H](C)/C=C/C=C/C=C/1C [Formula I, 37R-hydroxynorbornylrapamycin]
Concentration in Mouse Whole Blood, Mean [1]: 529 ng/mL | Concentration in Mouse Whole Blood, individual animals 1-3 [1]: 519 ng/mL and 530 ng/mL and 537 ng/mL | Concentration in Mouse Whole Blood, Mean [2]: 431 ng/mL | Concentration in Mouse Whole Blood, individual animals 1-3 [2]: 668 ng/mL and 392 ng/mL and 233 ng/mL | Concentration in Mouse Whole Blood, Mean [3]: 486 ng/mL | Concentration in Mouse Whole Blood, individual animals 1-3 [3]: 468 ng/mL and 646 ng/mL and 344 ng/mL | Concentration in Mouse Whole Blood, Mean [4]: 36.6 ng/mL | Concentration in Mouse Whole Blood, individual animals 1-3 [4]: 35.8 ng/mL and 48.0 ng/mL and 26.0 ng/mL | Concentration in Mouse Whole Blood, Mean [5]: 569 ng/mL | Concentration in Mouse Whole Blood, individual animals 1-3 [5]: 682 ng/mL and 670 ng/mL and 354 ng/mL | Concentration in Mouse Whole Blood, Mean [6]: 814 ng/mL | Concentration in Mouse Whole Blood, individual animals 1-3 [6]: 746 ng/mL and 841 ng/mL and 854 ng/mL | Concentration in Mouse Whole Blood, Mean [7]: 552 ng/mL | Concentration in Mouse Whole Blood, individual animals 1-3 [7]: 537 ng/mL and 803 ng/mL and 315 ng/mL | Concentration in Mouse Whole Blood, Mean [8]: 47.8 ng/mL | Concentration in Mouse Whole Blood, individual animals 1-3 [8]: 26.8 ng/mL and 76.5 ng/mL and 40.1 ng/mL | Concentration in Mouse Whole Blood, Mean [9]: 946 ng/mL | Concentration in Mouse Whole Blood, individual animals 1-3 [9]: 968 ng/mL and 885 ng/mL and 986 ng/mL | Concentration in Mouse Whole Blood, Mean [10]: 583 ng/mL | Concentration in Mouse Whole Blood, individual animals 1-3 [10]: 760 ng/mL and 707 ng/mL and 282 ng/mL | Concentration in Mouse Whole Blood, Mean [11]: 630 ng/mL | Concentration in Mouse Whole Blood, individual animals 1-3 [11]: 560 ng/mL and 860 ng/mL and 469 ng/mL | Concentration in Mouse Whole Blood, Mean [12]: 62.5 ng/mL | Concentration in Mouse Whole Blood, individual animals 1-3 [12]: 45.7 ng/mL and 92.2 ng/mL and 49.7 ng/mL | Concentrations in whole blood over time (in words) (2 mg/kg or 10 mg/kg IP QD for three days): sufficient concentrations in whole blood over time | Concentration in Mouse Whole Blood, Mean [13]: 778 ng/mL | Concentration in Mouse Whole Blood, individual animals 4-6 [13]: 744 ng/mL and 736 ng/mL and 853 ng/mL | Concentration in Mouse Whole Blood, Mean [14]: 2340 ng/mL | Concentration in Mouse Whole Blood, individual animals 4-6 [14]: 2390 ng/mL and 2040 ng/mL and 2590 ng/mL | Concentration in Mouse Whole Blood, Mean [15]: 1726 ng/mL | Concentration in Mouse Whole Blood, individual animals 4-6 [15]: 1970 ng/mL and 2300 ng/mL and 908 ng/mL | Concentration in Mouse Whole Blood, Mean [16]: 273 ng/mL | Concentration in Mouse Whole Blood, individual animals 4-6 [16]: 357 ng/mL and 320 ng/mL and 141 ng/mL | Concentration in Mouse Whole Blood, individual animals 4-6 (10 mg/kg IP QD x 3 days, Day 2, 1.00 hrs): AQL (Original value above quantitation limit (1000 ng/mL)) and 3130 ng/mL and 739 ng/mL | Concentration in Mouse Whole Blood, Mean (10 mg/kg IP QD x 3 days, Day 2, 1.00 hrs, one animal AQL): 1935 ng/mL | Concentration in Mouse Whole Blood, Mean [17]: 2820 ng/mL | Concentration in Mouse Whole Blood, individual animals 4-6 [17]: 3060 ng/mL and 2660 ng/mL and 2740 ng/mL | Concentration in Mouse Whole Blood, individual animals 4-6 (10 mg/kg IP QD x 3 days, Day 2, 6.00 hrs): AQL (Original value above quantitation limit (1000 ng/mL)) (2×) and 811 ng/mL | Concentration in Mouse Whole Blood, Mean (10 mg/kg IP QD x 3 days, Day 2, 6.00 hrs, two animals AQL): 811 ng/mL | Concentration in Mouse Whole Blood, Mean [18]: 335 ng/mL | Concentration in Mouse Whole Blood, individual animals 4-6 [18]: 335 ng/mL and 472 ng/mL and 199 ng/mL | Concentration in Mouse Whole Blood, individual animals 4-6 (10 mg/kg IP QD x 3 days, Day 3, 1.00 hrs): 3490 ng/mL and 3220 ng/mL | Concentration in Mouse Whole Blood, individual animals 4-6 (10 mg/kg IP QD x 3 days, Day 3, 2.00 hrs): 2530 ng/mL and 2680 ng/mL and 482 ng/mL | Concentration in Mouse Whole Blood, individual animals 4-6 (10 mg/kg IP QD x 3 days, Day 3, 6.00 hrs): 966 ng/mL and 2410 ng/mL and 773 ng/mL | Concentration in Mouse Whole Blood, individual animals 4-6 (10 mg/kg IP QD x 3 days, Day 3, 24.0 hrs): 548 ng/mL and 276 ng/mL
